These results are taken from patent US6482827B1, “Matrix metalloproteinase inhibitors” (Pharmacia & Upjohn S.p.A., priority 1997, dated 2002).

The nature of series [1]: PK parameters in rats, iv route. Conditions: rat, in vivo, 10-15 mg/kg. As to the method:
As a further example, Table 3 reports clearance and AUC values measured after intravenous administration to rats of a […] of some representative compounds of the present invention.

In series [2] the target is T1, Human stromelysin-1-255 (MMP-3) (Homo sapiens, UniProt P08254).
T1 construct: host or cells: E. coli
Description: Biochemical assay (Protocol A), Ki at steady state, MMP-3. Conditions: preincubation, 37° C., pH=7.4, read-out: Ki at steady state (Ki*) for inhibition of MMP-3. The protocol:
(§1) Human gelatinase-A (MMP-2) was obtained as pro-enzyme (72 kDa) and was activated with 1 mM 4-aminophenylmercuric acetate for 30 min at 37° C. immediately prior to use. Human stromelysin-1-255 (MMP-3) was obtained as a recombinant pro-enzyme isolated from E. coli and activated by heat (1 h, 55° C.).
(§2) The substrate was the commercial quenched-fluorescence peptide Mca-Pro-Leu-Gly-Leu-Dpa-Ala-Arg-NH2, that is (7-methoxycoumarin4-yl)Acetyl-Pro-Leu-Glv-Leu-(3-[2,4-dinitrophenyl]-L-2,3-diamino-propionyl)-Ala-Arg-NH2 (C. G. Knight et al., FEBS Lett.296:263, 1992). The enzymes cleave at the Gly-Leu bond, removing the internally quenching Dpa group. Release of the highly fluorescent peptide Mca-Pro-Leu was followed fluorimetrically at 37° C. using a Perkin Elmer LS-50 Fluorescence Spectrophotometer fitted with a thermostatted four position stirring cell changer. The excitation wavelength was set at 326 nm (bandwidth 5 nm) and the emission at 392 nm (bandwidth 20 nm). Km values of this substrate for the three MMP's is 70 μM or more (Knight et al., reference above). Substrate concentration was 2 μM in the tests, so that we could approximate to unit the term (1+[substrate]/KM) in calculations. The substrate was stable for over 60 minutes in the assay conditions, giving no appreciable increment of fluorescence. Full response was adjusted against 200 nM Mca-Pro-Leu-OH (the released fluorescent peptide) and the instrument was calibrated in the range 0-100 nM Mca-Pro-Leu-OH, corresponding to 0-5% extent of hydrolysis of the 2 μM substrate. The aqueous assay buffer was 50 mM Tris/HCl pH=7.4 containing 0.15 M NaCl, 10 mM CaCl2, 0.01 mM ZnCl2 and 0.05% Brij 35. The concentration of the activated enzyme was determined by titration against representative inhibitors described in the literature and synthesized in house: Roche Ro31-9790 (N. G. Knebel et al., J. Chromatogr. B 673:213, 1995) for MMP-1, and Celltech CT-1418 (compound 1 in S. K. Chander, J. Pharm. Sci. 84:404, 1995) for MMP-2 and MMP-3. Enzyme concentrations in the tests were set at 1.0 nM for MMP-1, 0.04 nM for MMP-2, and 3.0 nM for M-3. Under our assay conditions, we measured keat/KM values of 26900, 669000 and 9740 1/(M×s) for MMP-1, MMP-2 and MMP-3, respectively. All the three enzymes were found stable for over three hours in the assay conditions.
(§3) The inhibition constant for compounds of the present invention was measured at steady state (Ki*; see J. F. Morrison and C. T. Walsh, Adv. Enzymol. Relat. Areas Mol. Biol. 61:201, 1988), upon preincubation experiment, by measuring V0, the initial rate in the absence of inhibitor, and Vs, the steady-state velocity, at different concentrations of inhibitors in the region of their enzyme-inhibitor dissociation constants.
(§4) On a routine basis, 1.94 mL of assay buffer was pre-heated at 37° C. in a vial, 0.02 mL of inhibitor in DMSO (or DMSO only), and 0.02 ml of 100 nM MMP-1 or 4 nM MMP-2 or 300 nM MMP-3 were added, mixed, and the vial was held at 37° C. for 5-180 minutes. Then 0.02 ml of 0.2 mM substrate was added, mixed and transferred into a pre-heated cell. The sample was allowed to equilibrate in the cuvette for 3-5 min at 37° C. against small changes in temperature and changes in the enzyme-inhibitor equilibria related to addition of substrate. After that, the linear increase of fluorescence was monitored over 3-5 min, and the slope (Vo or Vs) was obtained. Inhibitor concentrations were varied to collect data over Vs/Vo ratio ranging from 0.05 to 0.95. The values of Ki* were calculated by nonlinear weighted regression to the tight-binding equation according to Morrison and Walsh above:
(§5) Vs/Vo=[1/(2×Et)]×SQR[(Ki*+It−Et)^2+4×Ki*×Et]−(Ki*+It−Et)
(§6) wherein Et is the total enzyme concentration, and It is the total inhibitor concentration. The following Table I lists Ki* obtained for some representative examples: […]

Series [3] can be described thus: PK parameters, oral route, rat. The series is classed as in vivo. Conditions: 10-15 mg/kg; for bioavailability: read-out: % F (oral bioavailability). The protocol: (§7) As an additional example, Table 4 reports the maximum plasma concentration (Cmax) and oral bioavailability (% F; calculated from dose-normalised ratio of oral to i.v. mean AUC values) after oral administration to rats or cynomolgus monkeys of a […] of some representative compounds of the present invention.

Series [4] has as its target T2, Human collagenase (MMP-1) (Homo sapiens, UniProt P03956).
T2 sequence (P03956 101-269): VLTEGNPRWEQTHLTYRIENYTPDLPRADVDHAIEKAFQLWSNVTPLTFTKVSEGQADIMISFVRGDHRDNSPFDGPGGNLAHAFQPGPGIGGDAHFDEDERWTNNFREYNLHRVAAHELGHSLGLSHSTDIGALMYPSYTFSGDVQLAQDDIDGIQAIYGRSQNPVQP
Description: Biochemical assay (Protocol A), Ki at steady state, MMP-1. Conditions: preincubation, 37° C., pH=7.4, read-out: Ki at steady state (Ki*) for inhibition of MMP-1. The protocol: as §1, §2, §3, §4, §5, §6

Series [5] addresses T3, Human gelatinase-A (MMP-2) (Homo sapiens, UniProt P08253).
T3 sequence (P08253 110-660): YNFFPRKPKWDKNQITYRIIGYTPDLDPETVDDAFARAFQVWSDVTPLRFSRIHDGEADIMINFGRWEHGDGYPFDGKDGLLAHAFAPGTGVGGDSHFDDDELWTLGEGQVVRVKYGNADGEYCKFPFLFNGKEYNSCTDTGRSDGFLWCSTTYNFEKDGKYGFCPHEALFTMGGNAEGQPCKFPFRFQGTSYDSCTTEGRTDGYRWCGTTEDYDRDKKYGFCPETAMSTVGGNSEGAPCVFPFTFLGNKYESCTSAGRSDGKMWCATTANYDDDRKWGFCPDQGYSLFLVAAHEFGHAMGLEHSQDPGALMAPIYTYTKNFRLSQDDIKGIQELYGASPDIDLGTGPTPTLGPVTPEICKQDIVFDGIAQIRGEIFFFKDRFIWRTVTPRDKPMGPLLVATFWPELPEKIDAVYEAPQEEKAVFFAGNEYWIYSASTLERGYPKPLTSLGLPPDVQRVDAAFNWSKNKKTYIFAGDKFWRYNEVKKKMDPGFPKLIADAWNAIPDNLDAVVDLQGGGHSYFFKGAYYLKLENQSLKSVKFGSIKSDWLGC
Description: Biochemical assay (Protocol A), Ki at steady state, MMP-2. Conditions: preincubation, 37° C., pH=7.4, read-out: Ki at steady state (Ki*) for inhibition of MMP-2. The protocol: as §1, §2, §3, §4, §5, §6

Series [6] in a line: PK parameters, oral route, cynomolgus monkey. The series is classed as in vivo. Conditions: 10-15 mg/kg. As to the method: as §7
A short description of series [7]: Aqueous solubility. The series is classed as physicochemical. Conditions: water; 25° C., Conditions B.
Series [8] has as its system stifle joints. Description: Animal model of tolerability with MMP inhibitors, histological evaluation of stifle joints. The series is classed as in vivo. Conditions: rats, intraperitoneal, 10 consecutive days, daily doses of 150 mg/kg or less. The text has this: Although MMPs have been recognized as drug targets for at least 20 years, and potent MMP inhibitors described by formula (A) have been disclosed since 1986 or before (e.g., see J. P. Dickens et al., U.S. Pat. No. 4,599,361), no drug of this type has arrived at the market yet. This is not because of questions about the therapeutic potential of MMP inhibitors, but because of problems of “peptide-based hydroxamates”, such as aqueous solubility, metabolic stability, and other desirable properties, oral bioavailability in particular (e.g., J. R. Porter, reference above; J. Hodgson, “Remodelling MMPIs”, Biotechnology 13:554-557, 1995). For example, it is well known that most “peptide-based hydroxamates” of general formula (A) are rapidly glucuronidated, oxidized to the carboxylic acid, and excreted in the bile (e.g., see J. Singh et al., Bioorg. Med. Chem. Lett. 5:337-342, 1995, and other references above). Finally, another type of problem of the known inhibitors described by general formula (A) may be one of tolerability. […] We have extended these observations by developing an animal model of tolerability with MMP inhibitors (S. Castellino et al., unpublished), involving intraperitoneal administration of the latter in rats for 10 consecutive days, and histological evaluation of stifle joints at the end of treatment. […]

For series [9] the following is noted: clinic; cited from earlier work.
Where [10] appears, read: plasma, dose-normalised ratio of oral to i.v. mean AUC.
[11] abbreviates: dose-normalised ratio of oral to i.v. mean AUC.

The structures appear in SMILES notation. pKi: −log10 of the molar value. ≈ marks a conversion by molar mass, not a printed value.

T1 sequence (P08254 100-255 limits assumed): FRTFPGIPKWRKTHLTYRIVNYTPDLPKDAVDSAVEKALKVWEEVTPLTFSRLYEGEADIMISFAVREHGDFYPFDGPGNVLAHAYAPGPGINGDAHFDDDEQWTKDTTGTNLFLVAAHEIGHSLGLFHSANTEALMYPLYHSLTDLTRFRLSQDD

Consider `Cc1ccc(S(=O)(=O)N[C@H](C(=O)NO)[C@@H](CC(C)C)C(=O)N2CCOCC2)cc1` [Example 12, (4-Hydroxyamino-2R-isobutyl-3S-(4-toluenesulfonyl)amino)succinyl-morpholinamide], for which, in series [1], the AUC (as a rule, the area under the concentration-time curve, a measure of exposure) is 6580 ng·h/mL. For the same compound, in series [1], the clearance – broadly, the rate of elimination divided by the concentration – is 39 mL/min/kg. Besides, the negative logarithm of the Ki (pKi) (as a rule, −log10 of the Ki, conventionally taken in molar units) in series [2] was 6.42; in series [4], 7.39; in series [5], 6.72. Further, the bioavailability – broadly, dose-corrected exposure relative to a reference, in per cent – in series [3] (setting [10]) worked out at 21%. In addition, in series [3] (plasma, read-out: Cmax), the Cmax (usually the peak of the concentration-time curve) turned out to be 2440 ng/mL.

`N[C@H](C(=O)NO)[C@@H](CC1CCCC1)C(=O)N1CCN(Cc2ccc3c(c2)OCO3)CC1` [Example 27, (3S-Amino-2R-cyclopentylmethyl-4-hydroxyamino)succinyl-(4-piperonyl)piperazinamide] gave an exposure (AUC) in series [1] of 11300 ng·h/mL. In series [1], this compound displayed a clearance of 23 mL/min/kg. Also, the pKi in series [2] is 6.62; in [4], 8.19; in series [5], 7.70. Moreover, the bioavailability in [3] (setting [10]) amounted to 58%; in [6] (plasma, dose-normalised ratio of oral to i.v. mean AUC, read-out: % F (oral bioavailability)) it was 34%. In addition, the peak concentration (Cmax) turned out to be 7910 ng/mL in series [3] (plasma, read-out: Cmax) and 3130 ng/mL in series [6] (plasma, read-out: Cmax). Also, the concentration in solution in series [7] (solubility) was 7100 µg/mL (≈ 16.4 mM).

For the compound `C[C@@H](NC(=O)[C@H](CC1CCCC1)[C@H](N)C(=O)NO)C1CCCCC1` [Example 50, (3S-Amino-2R-cyclopentylmethyl-4-hydroxyamino)succinyl-(1R-cyclohexylethyl)amide], the pKi was 6.31 in series [2], 7.59 in series [4] and 7.24 in series [5]. In addition, the Cmax in series [3] was determined as 3146 ng/mL; in [6] it was 49516 ng/mL. Further, the “% F (oral bioavailability)” value in series [3] (setting [11]) was 50%; in [6] (setting [11]), 70%.

Take `CNC(=O)[C@@H](NC(=O)[C@@H](CC(=O)NO)CC(C)C)C(C)(C)C` [Ro31-9790]: the “Histological findings in stifle joints” value in series [8] was “hypertrophic fibrosis of stifle ligaments, interstitial hypertrophic fibrosis of skeletal muscles, hypertrophic fibroplasia of the periostium and synovium, and chondrosysplasia and decreased endochondrial ossification of the ephyseal plate”.

With `CNC(=O)[C@@H](NC(=O)[C@H](CC(C)C)[C@H](O)C(=O)NO)C(C)(C)C` [marimastat], in [9], the Tolerability in humans entry is recorded as “muscoloskeletal problems”.
